From patent US20240228489A1, “POSITIVE ALLOSTERIC MODULATORS OF THE MUSCARINIC ACETYLCHOLINE RECEPTOR M1” (Vanderbilt University, priority 2021, published 2024) come the findings set out here.

For test [1], the target named is T1, human mAChR M1 (Homo sapiens, UniProt P11229).
T1 sequence (P11229 1-460): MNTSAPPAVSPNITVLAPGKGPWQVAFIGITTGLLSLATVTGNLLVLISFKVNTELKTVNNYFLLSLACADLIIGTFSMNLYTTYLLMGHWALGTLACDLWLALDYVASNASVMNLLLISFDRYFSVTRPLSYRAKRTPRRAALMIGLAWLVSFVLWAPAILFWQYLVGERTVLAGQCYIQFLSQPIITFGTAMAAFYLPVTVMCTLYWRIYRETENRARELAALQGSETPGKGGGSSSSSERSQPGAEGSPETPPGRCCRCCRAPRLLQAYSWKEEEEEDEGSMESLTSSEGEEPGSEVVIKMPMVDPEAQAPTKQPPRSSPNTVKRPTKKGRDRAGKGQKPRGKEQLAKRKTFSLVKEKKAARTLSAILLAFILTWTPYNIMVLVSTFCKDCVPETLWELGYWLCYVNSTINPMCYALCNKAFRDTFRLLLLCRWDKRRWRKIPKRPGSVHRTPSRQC
Kind of test: mAChR M1 cell-based functional assay (calcium mobilization), PAM mode: increase in the EC20 acetylcholine response. Summed up:
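CHO-K1 cells stably expressing hM1, Fluo-4 loaded, read by FDSS calcium flux at 1 Hz. Compound (11-point 1:3 CRC) added at 4 s, EC20 acetylcholine at 144 s, EC80 at 230 s. PAM activity taken as concentration-dependent increase in EC20 ACh response, fitted by four-parameter logistic for EC50/Emax.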

For test [2], the target named is T1, human mAChR M1. Nature of the test: mAChR M1 cell-based functional assay (calcium mobilization), agonist mode: compound alone, Emax relative to acetylcholine maximum. The conditions noted are these: for Agonist Activity Human M1 EC50 / EC50: human mAChR M1. Summed up: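 CHO-K1 cells stably expressing hM1 were loaded with Fluo-4 AM, and calcium flux was read as fluorescence ratio. Compound was added alone from an 11-point 1:3 curve, and the agonist response was fitted with a four-parameter logistic. Emax is expressed relative to the acetylcholine maximum.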

Where [3] appears, read: relative to the maximum for acetylcholine.

As usually defined, the EC50 is the concentration that produces a half-maximal response. As a reminder, the Emax is the size of the effect at its maximum, as opposed to the concentration needed. Regarding `[2H]C1([2H])c2ncccc2C(=O)N1Cc1c(F)cc(-c2ccc(OC(C)C)c3c2cnn3C([2H])([2H])[2H])cc1F` [Compound 250, 6-(2,6-difluoro-4-(7-isopropoxy-1-(methyl-d3)-1H-indazol-4-yl)benzyl)-6,7-dihydro-5H-pyrrolo[3,4-b]pyridin-5-one-7,7-d2], in test [1], the EC50 was > 10000 nM. Further, the Emax in test [1] was determined as 51%; in test [2] (setting [3]), 3%. Further, the “Agonist Activity Human M1 EC50” value in test [2] is “Inactive”.
`[2H]C1([2H])c2ncccc2C(=O)N1Cc1c(F)cc(-c2ccc(C(F)(F)F)c3nn(C)cc23)cc1C1CC1` [Compound 207, 6-(2-cyclopropyl-6-fluoro-4-(2-methyl-7-(trifluoromethyl)-2H-indazol-4-yl)benzyl)-6,7-dihydro-5H-pyrrolo[3,4-b]pyridin-5-one-7,7-d2]: the values for the EC50 in test [1] and in test [2] were 673 nM and 8.07 µM, respectively. In addition, the Emax in test [1] amounted to 84%; in test [2] (setting [3]), 25%.
Turning to `[2H]C1([2H])c2ncccc2C(=O)N1Cc1ccc(-c2ccc(F)c3nn(C([2H])([2H])[2H])cc23)cc1C` [Compound 47, 6-(4-(7-fluoro-2-(methyl-d3)-2H-indazol-4-yl)-2-methylbenzyl)-6,7-dihydro-5H-pyrrolo[3,4-b]pyridin-5-one-7,7-d2], in test [1], the 50% effective concentration (EC50) turned out to be 900 nM and the Emax is 76%. Also, the “Agonist Activity Human M1 EC50” value in test [2] was “Inactive”. The Emax in test [2] (setting [3]) stood at 5%.
As for `[2H]C1([2H])c2ncccc2C(=O)N1Cc1ccc(-c2ccn3ccnc3c2)cc1` [Compound 19, 6-(4-(imidazo[1,2-a]pyridin-7-yl)benzyl)-6,7-dihydro-5H-pyrrolo[3,4-b]pyridin-5-one-7,7-d2], the EC50 in test [1] was > 10000 nM. Besides, the Emax in test [1] is 58%; in test [2] (setting [3]), 4%. In test [2], the “Agonist Activity Human M1 EC50” value is listed as “Inactive”.
With `[2H]C1([2H])c2ncccc2C(=O)N1Cc1ccc(-c2ccc(F)c3nn(C([2H])([2H])[2H])cc23)cc1F` [Compound 54, 6-(2-fluoro-4-(7-fluoro-2-(methyl-d3)-2H-indazol-4-yl)benzyl)-6,7-dihydro-5H-pyrrolo[3,4-b]pyridin-5-one-7,7-d2], the EC50 in test [1] is 382 nM; in test [2], > 10 µM. The Emax in test [1] was 82%; in test [2] (setting [3]), 5%.
Regarding `[2H]C1([2H])c2ncccc2C(=O)N1Cc1c(F)cc(-c2ccc(OC3CCC3)c3nn(C)cc23)cc1F` [Compound 125, 6-(4-(7-cyclobutoxy-2-methyl-2H-indazol-4-yl)-2,6-difluorobenzyl)-6,7-dihydro-5H-pyrrolo[3,4-b]pyridin-5-one-7,7-d2], the concentration giving a half-maximal response (EC50) in test [1] was 382 nM; in test [2] it was ≥ 10 µM. Moreover, the maximal effect (Emax) in test [1] amounted to 72%; in test [2] (setting [3]), 14%.
Turning to `[2H]C1([2H])c2ncccc2C(=O)N1Cc1ccc(-c2cccc3nn(C)cc23)cc1C` [Compound 29, 6-(2-methyl-4-(2-methyl-2H-indazol-4-yl)benzyl)-6,7-dihydro-5H-pyrrolo[3,4-b]pyridin-5-one-7,7-d2], the EC50 in test [1] is 632 nM; in test [2], 7.86 µM. Moreover, the results for the maximal effect (Emax) in test [1] and in test [2] (setting [3]) were 81% and 33%, respectively.
In the case of `[2H]C1([2H])c2ncccc2C(=O)N1Cc1c(F)cc(-c2ccc3nn(C)cc3c2)cc1F` [Compound 8, 6-(2,6-difluoro-4-(2-methyl-2H-indazol-5-yl)benzyl)-6,7-dihydro-5H-pyrrolo[3,4-b]pyridin-5-one-7,7-d^2], the concentration giving a half-maximal response (EC50) in test [1] stood at 639 nM. For the same compound, the Emax in test [1] stood at 62%; in test [2] (setting [3]) it was 4%. Besides, the “Agonist Activity Human M1 EC50” value in test [2] is listed as “Inactive”.
Turning to `[2H]C1([2H])c2ncccc2C(=O)N1Cc1c(F)cc(-c2cccc3c2cnn3C(F)F)cc1F` [Compound 60, 6-(4-(1-(difluoromethyl)-1H-indazol-4-yl)-2,6-difluorobenzyl)-6,7-dihydro-5H-pyrrolo[3,4-b]pyridin-5-one-7,7-d2], in test [1], the EC50 came out at 693 nM and the “PAM Activity Emax” value amounted to 34%. Also, the “Agonist Activity Human M1 EC50” value in test [2] was “Inactive”. In addition, the “Agonist Activity Emax” value in test [2] (setting [3]) is listed as 4%.
As for `[2H]C1([2H])c2ncccc2C(=O)N1Cc1c(F)cc(-c2ccc(Cl)c3nn(C)cc23)cc1OCC(C)C` [Compound 215, 6-(4-(7-chloro-2-methyl-2H-indazol-4-yl)-2-fluoro-6-isobutoxybenzyl)-6,7-dihydro-5H-pyrrolo[3,4-b]pyridin-5-one-7,7-d2], the EC50 in test [1] came to 2380 nM. In addition, the Emax was found to be 83% in test [1] and 2% in test [2] (setting [3]). In addition, the “Agonist Activity Human M1 EC50” value in test [2] is given as “Inactive”.
For `[2H]C1([2H])c2ncccc2C(=O)N1Cc1c(F)cc(-c2ccc(OCC3CN(C(=O)OC(C)(C)C)C3)c3nn(C)cc23)cc1F` [Compound 179, tert-butyl 3-(((4-(3,5-difluoro-4-((5-oxo-5,7-dihydro-6H-pyrrolo[3,4-b]pyridin-6-yl-7,7-d2)methyl)phenyl)-2-methyl-2H-indazol-7-yl)oxy)methyl)azetidine-1-carboxylate] the same measures were 1120 nM, 55%, 1% and “Inactive”.
For `[2H]C1([2H])c2ncccc2C(=O)N1Cc1c(F)cc(-c2cnc3nn(C)cc3c2)cc1F` [Compound 3, 6-(2,6-difluoro-4-(2-methyl-2H-pyrazolo[3,4-b]pyridin-5-yl)benzyl)-6,7-dihydro-5H-pyrrolo[3,4-b]pyridin-5-one-7,7-d2], the EC50 stood at 900 nM in test [1] and 6.92 µM in test [2]. Moreover, the Emax in test [1] amounted to 56%; in test [2] (setting [3]), 31%.
With `[2H]C1([2H])c2ncccc2C(=O)N1Cc1c(F)cc(-c2cccc3nn(C)cc23)cc1OCC(C)C` [Compound 210, 6-(2-fluoro-6-isobutoxy-4-(2-methyl-2H-indazol-4-yl)benzyl)-6,7-dihydro-5H-pyrrolo[3,4-b]pyridin-5-one-7,7-d2], in test [1], the EC50 came to 865 nM and the Emax was 83%. In test [2], the “Agonist Activity Human M1 EC50” value is “Inactive”. Further, the Emax in test [2] (setting [3]) turned out to be 14%.
On to `[2H]C1([2H])c2ncccc2C(=O)N1Cc1c(F)cc(-c2cc(Cl)c3nn(C)cc3c2)cc1F` [Compound 89, 6-(4-(7-chloro-2-methyl-2H-indazol-5-yl)-2,6-difluorobenzyl)-6,7-dihydro-5H-pyrrolo[3,4-b]pyridin-5-one-7,7-d2], for which the EC50 in test [1] turned out to be 88 nM. The Emax in test [1] came to 46%; in test [2] (setting [3]), 1%. For the same compound, the “Agonist Activity Human M1 EC50” value in test [2] is listed as “Inactive”.
For `[2H]C1([2H])c2ncccc2C(=O)N1Cc1ccc(-c2ccc(O[C@@H]3CCOC3)c3nn(C)cc23)cc1F` [Compound 151, (R)-6-(2-fluoro-4-(2-methyl-7-((tetrahydrofuran-3-yl)oxy)-2H-indazol-4-yl)benzyl)-6,7-dihydro-5H-pyrrolo[3,4-b]pyridin-5-one-7,7-d2], the EC50 in test [1] is 694 nM; in test [2] it was ≥ 10 µM. Further, the maximal effect (Emax) in test [1] was 76%; in test [2] (setting [3]) it was 22%.
`[2H]C([2H])([2H])Oc1ccc(-c2ccc(CN3C(=O)c4cccnc4C3([2H])[2H])c(F)c2)c2cn(C)nc12` [Compound 107, 6-(2-fluoro-4-(7-(methoxy-d3)-2-methyl-2H-indazol-4-yl)benzyl)-6,7-dihydro-5H-pyrrolo[3,4-b]pyridin-5-one-7,7-d2]: the EC50 in test [1] is 227 nM; in test [2] it was 5.46 µM. For the same compound, the results for the Emax in test [1] and in test [2] (setting [3]) were 74% and 16%, respectively.
With `[2H]C1([2H])c2ncccc2C(=O)N1Cc1ccc(-c2ccc(C)c3nn(C)cc23)cc1C` [Compound 30, 6-(4-(2,7-dimethyl-2H-indazol-4-yl)-2-methylbenzyl)-6,7-dihydro-5H-pyrrolo[3,4-b]pyridin-5-one-7,7-d2], the EC50 in test [1] was 1090 nM; in test [2], > 10 µM. Besides, the Emax in test [1] came to 79%; in test [2] (setting [3]) it was 22%.
In the case of `[2H]C([2H])([2H])Oc1cc(-c2cc(F)c(CN3C(=O)c4cccnc4C3([2H])[2H])c(F)c2)c2cnn(C([2H])([2H])[2H])c2c1` [Compound 88, 6-(2,6-difluoro-4-(6-(methoxy-d3)-1-(methyl-d3)-1H-indazol-4-yl)benzyl)-6,7-dihydro-5H-pyrrolo[3,4-b]pyridin-5-one-7,7-d2], in test [1], the EC50 turned out to be 2700 nM. The Emax in test [1] turned out to be 37%; in test [2] (setting [3]) it was 2%. In addition, the “Agonist Activity Human M1 EC50” value in test [2] is “Inactive”.
For `[2H]C1([2H])c2ncccc2C(=O)N1Cc1c(F)cc(-c2cccc3nn(C([2H])([2H])[2H])cc23)cc1OC` [Compound 232, 6-(2-fluoro-6-methoxy-4-(2-(methyl-d3)-2H-indazol-4-yl)benzyl)-6,7-dihydro-5H-pyrrolo[3,4-b]pyridin-5-one-7,7-d2] the same measures were 760 nM, 80%, 8% and “Inactive”.
